From patent US4849410A, “Pseudopterosin and synthetic derivatives thereof” (The Regents of the University of California, priority 1987, dated 1989)

How the values were obtained:
[1] = system: Phorbol Myristate Acetate (PMA) Induced Topical Inflammation of the Mouse Ear; experiment: Mouse Ear Anti-Inflammatory Assay (PMA, topical); type: in vivo; settings: for Mean Ear Weight ± S.E.: Table IV, in mg; for Anti-inflammatory Activity: summary
Method: a. Mouse Ear Anti-Inflammatory Assay
Test compound and phorbol myristate acetate (PMA) are topically applied simultaneously to the pinnae of the ears of mice. Three hours twenty minutes after application, mice are sacrificed, ears removed and standard sized bores taken. Edema (inflammation) is measured as the difference in weight between control and treated ears.
The vheicle or carrier for the compounds used in the inflammatory and analgesic assays was as follows; For the mouse ear inflammatory assay, the vehicle was acetone. Controls received 25 microliters of acetone. Test compounds were applied to the experimental animals in 25 microliter volumes. For the sperm motility and fertilized sea urchin egg assays, the compounds were dissolved in 10 microliters undenatured ethanol.

[2] = system: Intraperitoneally Administered Phenylquinone; experiment: Phenylquinone Assay for Analgesia (writhing); type: in vivo, mice; settings: for Analgesic Activity: summary; for Mean Writhes per Animal / No. Writhes / % Change Relative to Control: 25 mg/kg; for No. Writhes: total of group; for % Change Relative to Control: writhes per animal
Method: d. Phenylquinone Assay for Analgesia
Test compound is injected subcutaneously into mice. After 30 minutes, phenylquinone is injected intraperitoneally to cause pain as indicated by writhing.
Test compound was administered subcutaneously in sesame oil at concentrations up to 5 mg per ml depending on the test compound dosage protocol. The highest dose was 50 mg per Kg. Control groups received sesame oil subcutaneously.

[3] = system: B16 melanoma; experiment: Activity in mice bearing ip B16 melanoma; type: in vivo, female B6D2F1 mice
Method: (§1) Compound I was also evaluated for activity against solid tumors as follows:
(§2) One-half ml of a 10 percent (v:v) brei of tumor cells prepared from solid B16 melanoma or M5076 reticulum cell sarcoma was implanted ip in female B6D2F1 mice which were randomized to treatment groups of 8 animals each. Treatment was initiated 24 hours after tumer inoculation and was continued daily for 10 days (cisplatin was administered q4Dx4 on Days 1, 5, 9 and 13). Mice were monitored daily for 60 days, and the median day of death was determined compared to three groups of untreated controls to provide percent increase in lifespan (ILS). ILS values of greater than or equal to 50 percent represent biologically significant antitumor effects. Cisplatin was curative in M5076 with 6/8 tumor-free survivors on Day 60 at the top dose level.

[4] = system: P388 leukemia; experiment: Evaluation in mice bearing ip P388 leukemia; type: in vivo, female B6D2F1 mice
Method: Compound I was also evaluated in mice bearing P388 Leukemia as follows:
Compound I was administered to the mice as a solution by first dissolving it in N,N-dimethylacetamide, adding an equal volume of Cremophor EL and then 8 volumes of water. The drug concentration was such that the desired dose was delivered in a volume of 0.5 ml per mouse. Dilutions from the highest dose in a dose-response study were made by the addition of water so that organic component of the formulation decreased with dose reduction; the drug remained in solution.
10^6 P388 leukemia cells were implanted intraperitoneal in female B6D2F1 mice which were randomized to treatment groups of six animals each. Treatment was initiated 24 hours after tumor implantation and was continued daily for five days (Cisplatin was administered on Days 1 and 5 for the Group 1 mice). Mice were weighted as groups on Days 1, 5 and 9 to provide an indication of drug toxicity. Mice were monitored for survival daily for 45 days, and the median day of death was determined compared to three groups of untreated controls to provide percent increase in lifespan (ILS). ILS values of greater than or equal to 40 percent represent actual reduction in tumor cell burden during the course of treatment and are taken as indications of biologically significant antitumor effect.

[5] = system: M5076 reticulum cell sarcoma; experiment: Activity in mice bearing ip M5076 reticulum cell sarcoma; type: in vivo, female B6D2F1 mice
Method: as §1, §2

[6] = Group 2, cisplatin 1 mg/kg ip, Days 1-5
[7] = Group 2, cisplatin 2 mg/kg ip, Days 1-5
[8] = Group I, cisplatin 3 mg/kg ip, Days 1 and 5
[9] = Group I, cisplatin 6 mg/kg ip, Days 1 and 5

CC(=O)OC1COC(Oc2c(O)c(C)cc3c2C(C)CCC3C(C)CCC=C(C)C)C(O)C1O (stereo not shown) [Compound VIII]
Mean Ear Weight ± S.E. ([1]; 25.0 ug/ear): 13.93 ± 2.59
Mean Ear Weight ± S.E. ([1]; 50.0 ug/ear): 12.07 ± 1.69
Anti-inflammatory Activity [1]: Active
Analgesic Activity [2]: Active

CC(C)=CCCC(C)C1CCC(C)c2c1cc(C)c(O)c2OC1OCC(O)C(O)C1O (stereo not shown) [Compound IX]
Mean Ear Weight ± S.E. ([1]; 25.0 ug/ear): 15.85 ± 2.51
Mean Ear Weight ± S.E. ([1]; 50.0 ug/ear): 14.04 ± 2.38
Anti-inflammatory Activity [1]: Active
Mean Writhes per Animal [2]: 6.8
No. Writhes [2]: 68
% Change Relative to Control [2]: -26%
Analgesic Activity [2]: Active

N.N.[Cl][Pt][Cl] [Cisplatin, reference compound]
Increase to Lifespan ([3]; cisplatin 3 mg/kg ip): 36%
Median Survival Time ([3]; cisplatin 3 mg/kg ip): 30 days
Weight Change on Day 9 ([3]; cisplatin 3 mg/kg ip): +1.6 gm
Increase to Lifespan ([3]; cisplatin 6 mg/kg ip): 77%
Median Survival Time ([3]; cisplatin 6 mg/kg ip): 39 days
Weight Change on Day 9 ([3]; cisplatin 6 mg/kg ip): +0.5 gm
Increase to Lifespan [4, 6]: 75%
Median Survival Time [4, 6]: 17.5 days
Weight Change Day 5 [4, 6]: -0.2 gm
Weight Change Day 9 [4, 6]: +0.1 gm
Increase to Lifespan [4, 7]: 200%
Median Survival Time [4, 7]: 30 days
Weight Change Day 5 [4, 7]: -2.5 gm
Weight Change Day 9 [4, 7]: -0.9 gm
Increase to Lifespan [4, 8]: 127%
Median Survival Time [4, 8]: 25 days
Weight Change Day 5 [4, 8]: +0.3 gm
Weight Change Day 9 [4, 8]: +1.1 gm
Increase to Lifespan [4, 9]: 177%
Median Survival Time [4, 9]: 30.5 days
Weight Change Day 5 [4, 9]: -1.2 gm
Weight Change Day 9 [4, 9]: -1.1 gm
Increase to Lifespan ([5]; cisplatin 3 mg/kg ip): 121%
Median Survival Time ([5]; cisplatin 3 mg/kg ip): 46.5 days
Weight Change on Day 9 ([5]; cisplatin 3 mg/kg ip): +0.1 gm
Increase to Lifespan ([5]; cisplatin 5 mg/kg ip): > 200%
Median Survival Time ([5]; cisplatin 5 mg/kg ip): > 60 days
Weight Change on Day 9 ([5]; cisplatin 5 mg/kg ip): -1.6 gm
tumor-free survivors on Day 60 ([5]; top dose level of cisplatin): 6/8

CC(=O)OC1C(O)COC(Oc2c(O)c(C)cc3c2C(C)CCC3C(C)CCC=C(C)C)C1O (stereo not shown) [Compound X]
Mean Ear Weight ± S.E. ([1]; 50.0 ug/ear): 10.64 ± 1.93
Anti-inflammatory Activity [1]: Active

COc1c(C)c2c3c(c1O)C(C)CCC3C(C)CC2C=C(C)C (stereo not shown) [Compound XII]
Mean Writhes per Animal [2]: 12.5
No. Writhes [2]: 25
% Change Relative to Control [2]: +6%

COc1ccc2c(c1)c(CC(=O)O)c(C)n2C(=O)c1ccc(Cl)cc1 [indomethacin, reference compound]
decrease in edema ([1]; 50 microgram): 50%

CC(=O)OC1=C(C)C2(O)C3=C(C1=O)C(C)CCC3C(C)CC2C=C(C)C (stereo not shown) [Compound XI]
Mean Writhes per Animal [2]: 12.3
No. Writhes [2]: 37
% Change Relative to Control [2]: +4%
